Measurements: ChEMBL document CHEMBL5346977, “Discovery of Novel d-(+)-Biotin-Conjugated Resorcinol Dibenzyl Ether-Based PD-L1 Inhibitors for Targeted Cancer Immunotherapy” (J Med Chem, 2023)
Calls of active or inactive are those of the source. No cut-off for these calls is given here.

Legend:
[1] = molecular target: Programmed cell death protein 1/Programmed cell death 1 ligand 1 (Homo sapiens, UniProt Q9NZQ7); test: Inhibition of GST-tagged PD-1 (unknown origin)/His-tagged PD-L1 (unknown origin) interaction by HTRF binding assay relative to control; format: protein-complex assay
Programmed cell death protein 1/Programmed cell death 1 ligand 1, sequence (Q15116 whole entry): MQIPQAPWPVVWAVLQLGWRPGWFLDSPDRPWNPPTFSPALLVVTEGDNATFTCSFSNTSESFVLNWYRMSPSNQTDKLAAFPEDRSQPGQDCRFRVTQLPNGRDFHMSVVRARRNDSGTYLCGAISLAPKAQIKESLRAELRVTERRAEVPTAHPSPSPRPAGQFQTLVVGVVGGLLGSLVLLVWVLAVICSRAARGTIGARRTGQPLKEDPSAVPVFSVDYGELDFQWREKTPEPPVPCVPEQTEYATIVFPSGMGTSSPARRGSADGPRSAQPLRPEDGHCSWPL
Programmed cell death protein 1/Programmed cell death 1 ligand 1, sequence (Q9NZQ7 whole entry): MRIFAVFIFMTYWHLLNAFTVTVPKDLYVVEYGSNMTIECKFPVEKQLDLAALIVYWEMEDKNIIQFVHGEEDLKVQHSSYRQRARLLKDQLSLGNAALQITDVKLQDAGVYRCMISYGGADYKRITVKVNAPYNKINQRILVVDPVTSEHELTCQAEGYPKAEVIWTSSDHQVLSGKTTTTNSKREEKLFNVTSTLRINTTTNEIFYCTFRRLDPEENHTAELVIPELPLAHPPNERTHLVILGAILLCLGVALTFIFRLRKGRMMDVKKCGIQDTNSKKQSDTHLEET

[2] = molecular target: Programmed cell death 1 ligand 1 (Homo sapiens, UniProt Q9NZQ7); test: Binding affinity to human PD-L1 assessed as dissociation constant by SPR analysis
Programmed cell death 1 ligand 1 (Homo sapiens, UniProt Q9NZQ7), sequence (Q9NZQ7 whole entry): as above

[3] = molecular target: Programmed cell death 1 ligand 1 (Mus musculus, UniProt Q9EP73); test: Binding affinity to mouse PD-L1 assessed as dissociation constant by MST analysis
Programmed cell death 1 ligand 1 (Mus musculus, UniProt Q9EP73), sequence (Q9EP73 whole entry): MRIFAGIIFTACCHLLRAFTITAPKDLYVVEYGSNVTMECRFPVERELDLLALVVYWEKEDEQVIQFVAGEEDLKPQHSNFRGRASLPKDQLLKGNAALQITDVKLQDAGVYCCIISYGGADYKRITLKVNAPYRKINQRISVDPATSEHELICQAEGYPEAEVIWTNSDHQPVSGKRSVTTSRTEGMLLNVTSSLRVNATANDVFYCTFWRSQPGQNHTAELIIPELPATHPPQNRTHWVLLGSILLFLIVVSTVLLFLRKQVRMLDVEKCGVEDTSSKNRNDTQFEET

HepG2 [4] = test: Antitumor immunity activity against human HepG2 cells expressing human PD-L1 co-cultured with human Jurkat T cells expressing human PD-1 assessed as reduction in cell viability incubated for 48 hrs by CCK8 assay; format: functional, cell-based; conditions: dose 1.1-10 µM
HepG2 [5] = test: Antitumor immunity activity against human HepG2 cells expressing human PD-L1 co-cultured with human Jurkat T cells expressing human PD-1 assessed as reduction in cell viability at 10 uM incubated for 48 hrs by CCK8 assay relative to control; format: functional
[6] = AUC (0 to t) in Sprague-Dawley rat at 1 mg/kg, iv administered as single dose and measured after 48 hrs by HPLC-MS/MS analysis; format: ADME, organism-based; set-up: dose 1 mg/kg, time 48 hrs, route iv; conditions: in vivo
[7] = Half-life in Sprague-Dawley rat at 1 mg/kg, iv administered as single dose and measured after 48 hrs by HPLC-MS/MS analysis; format: ADME, organism-based; conditions: in vivo
[8] = Tmax in Sprague-Dawley rat at 1 mg/kg, iv administered as single dose and measured after 48 hrs by HPLC-MS/MS analysis; format: ADME, organism-based; conditions: in vivo
[9] = Tmax in Sprague-Dawley rat at 20 mg/kg, po measured after 48 hrs by HPLC-MS/MS analysis; format: ADME, organism-based; conditions: in vivo
[10] = MRT (0 to t) in C57BL/6 mouse at 50 mg/kg, ip measured after 4 hrs by HPLC-MS/MS analysis; format: ADME, organism-based; conditions: in vivo
[11] = Half-life in C57BL/6 mouse at 50 mg/kg, ip measured after 4 hrs by HPLC-MS/MS analysis; format: ADME, organism-based; conditions: in vivo
[12] = Clearance in C57BL/6 mouse at 50 mg/kg, ip measured after 4 hrs by HPLC-MS/MS analysis; format: ADME, organism-based; conditions: in vivo
[13] = Initial drug concentration in C57BL/6 mouse at 50 mg/kg, ip measured after 4 hrs by HPLC-MS/MS analysis; format: ADME, organism-based; conditions: in vivo
B16-F10 [14] = test: Antitumor activity against mouse B16-F10 cells implanted in syngeneic C57BL/6 mouse assessed as inhibition of tumor growth at 50 mg/kg, ip measured after 12 days; format: functional, organism-based; conditions: time 12.0 day
B16-F10 [15] = test: Antitumor activity against mouse B16-F10 cells implanted in syngeneic C57BL/6 mouse assessed as decrease in tumor volume at 50 mg/kg, ip measured after 12 days relative to control; format: functional; set-up: scale not given: the % may be the effect or the level left; conditions: time 12 day
[16] = Drug concentration in liver of C57BL/6 mouse implanted with mouse B16-F10 cells at 50 mg/kg, ip measured after 0.5 hrs by UPLC-MS/MS analysis; format: ADME, organism-based; conditions: read-out: Ct
[17] = Drug concentration in lung of C57BL/6 mouse implanted with mouse B16-F10 cells at 50 mg/kg, ip measured after 0.5 hrs by UPLC-MS/MS analysis; format: ADME, organism-based; conditions: read-out: Ct
[18] = Drug concentration in kidney of C57BL/6 mouse implanted with mouse B16-F10 cells at 50 mg/kg, ip measured after 0.5 hrs by UPLC-MS/MS analysis; format: ADME, organism-based; conditions: read-out: Ct
[19] = Drug concentration in tumor of C57BL/6 mouse implanted with mouse B16-F10 cells at 50 mg/kg, ip measured after 0.5 hrs by UPLC-MS/MS analysis; format: ADME, organism-based, Neoplasm; conditions: read-out: Ct
[20] = Drug concentration in liver of C57BL/6 mouse implanted with mouse B16-F10 cells at 50 mg/kg, ip measured after 1 hrs by UPLC-MS/MS analysis; format: ADME, organism-based; conditions: read-out: Ct
[21] = Drug concentration in kidney of C57BL/6 mouse implanted with mouse B16-F10 cells at 50 mg/kg, ip measured after 1 hrs by UPLC-MS/MS analysis; format: ADME, organism-based; conditions: read-out: Ct
[22] = Drug concentration in plasma of C57BL/6 mouse implanted with mouse B16-F10 cells at 50 mg/kg, ip measured after 1 hrs by UPLC-MS/MS analysis; format: ADME, organism-based
[23] = Drug concentration in heart of C57BL/6 mouse implanted with mouse B16-F10 cells at 50 mg/kg, ip measured after 2 hrs by UPLC-MS/MS analysis; format: ADME, organism-based; conditions: read-out: Ct
[24] = Drug concentration in spleen of C57BL/6 mouse implanted with mouse B16-F10 cells at 50 mg/kg, ip measured after 2 hrs by UPLC-MS/MS analysis; format: ADME, organism-based; conditions: read-out: Ct
[25] = Drug concentration in kidney of C57BL/6 mouse implanted with mouse B16-F10 cells at 50 mg/kg, ip measured after 2 hrs by UPLC-MS/MS analysis; format: ADME, organism-based; conditions: read-out: Ct
[26] = Drug concentration in brain of C57BL/6 mouse implanted with mouse B16-F10 cells at 50 mg/kg, ip measured after 2 hrs by UPLC-MS/MS analysis; format: ADME, organism-based; conditions: read-out: Ct
[27] = Drug concentration in plasma of C57BL/6 mouse implanted with mouse B16-F10 cells at 50 mg/kg, ip measured after 2 hrs by UPLC-MS/MS analysis; format: ADME, organism-based
[28] = Drug concentration in heart of C57BL/6 mouse implanted with mouse B16-F10 cells at 50 mg/kg, ip measured after 4 hrs by UPLC-MS/MS analysis; format: ADME, organism-based; conditions: read-out: Ct
[29] = Drug concentration in spleen of C57BL/6 mouse implanted with mouse B16-F10 cells at 50 mg/kg, ip measured after 4 hrs by UPLC-MS/MS analysis; format: ADME, organism-based; conditions: read-out: Ct
[30] = Drug concentration in lung of C57BL/6 mouse implanted with mouse B16-F10 cells at 50 mg/kg, ip measured after 4 hrs by UPLC-MS/MS analysis; format: ADME, organism-based; conditions: read-out: Ct
[31] = Drug concentration in kidney of C57BL/6 mouse implanted with mouse B16-F10 cells at 50 mg/kg, ip measured after 4 hrs by UPLC-MS/MS analysis; format: ADME, organism-based; conditions: read-out: Ct
[32] = Drug concentration in brain of C57BL/6 mouse implanted with mouse B16-F10 cells at 50 mg/kg, ip measured after 4 hrs by UPLC-MS/MS analysis; format: ADME, organism-based; conditions: read-out: Ct
B16-F10 [33] = test: Antitumor immunity against mouse B16-F10 cells implanted in allogenic BALB/c mouse assessed as increase in CD3+ T cells at 50 mg/kg, ip by flow cytometric analysis (reference value: 2.51%); format: functional
B16-F10 [34] = test: Antitumor immunity against mouse B16-F10 cells implanted in allogenic BALB/c mouse assessed as increase in CD3+ CD4+ T cells percentage at 50 mg/kg, ip by flow cytometric analysis; format: functional, organism-based
B16-F10 [35] = test: Antitumor immunity against mouse B16-F10 cells implanted in allogenic BALB/c mouse assessed as increase in CD3+ CD8+ T cells percentage at 50 mg/kg, ip by flow cytometric analysis; format: functional, organism-based
B16-F10 [36] = test: Antitumor activity against mouse B16-F10 cells implanted in allogenic BALB/c mouse assessed as decrease in PD-L1 mRNA level at 50 mg/kg, ip by qPCR analysis; format: functional, organism-based

AUCt [6]: 719 ng·h/mL | half-life [7]: 18.1 h | Tmax [8]: 4.98 min | Tmax [9]: 3.3 h | MRT last at 4 h [10]: 2.24 h | t1/2 [11]: 14.587 h | CL [12]: 122.6 mL/min/kg | C0 [13]: 570.948 ng/mL | concentration at 0.5 h [16]: 1970 ng/mL | concentration at 0.5 h [17]: 285 ng/mL | concentration at 0.5 h [18]: 134 ng/mL | concentration at 0.5 h [19]: 15.5 ng/mL | concentration at 1 h [20]: 1980 ng/mL | concentration at 1 h [21]: 219 ng/mL | concentration at 1 h [22]: 1460 ng/mL | concentration at 2 h [23]: 12.4 ng/mL | concentration at 2 h [24]: 7180 ng/mL | concentration at 2 h [25]: 208 ng/mL | concentration at 2 h [26]: 4.2 ng/mL | concentration at 2 h [27]: 1400 ng/mL | concentration at 4 h [28]: 16.3 ng/mL | concentration at 4 h [29]: 7570 ng/mL | concentration at 4 h [30]: 143 ng/mL | concentration at 4 h [31]: 380 ng/mL | concentration at 4 h [32]: 4.6 ng/mL
Compound: Cc1c(COc2cc(OCc3cccc(C#N)c3)c(CN3CCCCC3C(=O)NCCNC(=O)CCCC[C@@H]3SC[C@@H]4NC(=O)N[C@@H]43)cc2Cl)cccc1-c1ccccc1 (stereo partly specified)
IC50 [1]: 1.8 nM | Kd [2]: 43.7 nM | Kd [3]: 438 nM | Activity (HepG2 [4]): Dose-Dependent Effect | Activity (HepG2 [5]): 2.7% | Activity (B16-F10 [14]): Active | Activity (B16-F10 [15]): 52.6% | Activity (B16-F10 [33]): 24.9% | Activity (B16-F10 [34]): Active | Activity (B16-F10 [35]): Active | Activity (B16-F10 [36]): Active
